Experimental findings from patent publication US10975099B2, “Thiophene compounds for long-acting injectable compositions and related methods” (Alkermes Pharma Ireland Limited, priority 2018, dated 2021) are described below.

SMILES strings stand for the structures. Several values for one entry are separate records, joined by “and”; a condition that tells them apart may be missing. Equal entries are not always repeated.

The nature of series [1]: Whole blood stability assay. To be noted: pooled fresh human whole blood, 37 degrees C., prodrug 50 nM; read-out: t1/2 at 37 degrees C. in human whole blood. It is filed as in vitro ADME. As for the experimental part: Naltrexone prodrug stability was assessed using freshly collected whole blood (within 24-hr collection) from pooled human (n=3) donors. The incubation mixtures were prepared by spiking the prodrugs into pre-warmed (37 degrees C.) fresh whole blood to a final concentration of 50 nM. After gentle mixing, aliquots of incubation mixtures were immediately transferred into four different 96-deep well plates. One plate was used for each time point. The plates were incubated at 37 degrees C. at a shaking speed of 100 rpm. At time points 15, 30, 60 and 120 minutes, the reaction was quenched by addition of a mixture of water and acetonitrile containing the internal standard (naltrexone-D3). Time point 0 minutes was prepared separately by spiking the prodrugs into a quenched whole blood to obtain a final concentration of 50 nM. All samples were vortexed at a low speed for 15 min and centrifuged at 3900 rpm for 15 min. Supernatants were transferred into 96-well plates for LC-MS/MS analysis to monitor the depletion of the prodrugs and the formation of naltrexone.
The amount of remaining prodrug and released naltrexone for each sample was quantitated against the calibration curves prepared with the whole blood. The human whole blood was purchased from BioreclamationIVT (Westbury, N.Y., USA). Naltrexone-D3 was purchased from Cerilliant® (Round Rock, Tex., USA). […] Where multiple runs have been completed, average values are reported.

A short description of series [2]: Pharmacokinetic evaluation of the release of naltrexone from Compound 4 in rats following a single intramuscular injection. It is filed as in vivo, Sprague-Dawley rats. To be noted: for plasma concentrations of parent Compound 4 and the resultant intermediate, in words: over 84 days after single IM dose of Compound 4, limit of quantitation 0.5 ng/mL. As for the experimental part: Five male Sprague-Dawley rats were allowed to acclimate to the test facility for at least 3 days prior to study start. For dose administration of Compound 4, the rats were lightly anesthetized with isofluorane, the hind leg shaved and dosed intramuscularly with the formulation using a 20 G needle. […] Serial whole blood samples were collected via sublingual route (˜150 μL) at 1, 7, and 24 hours post dose, and at 2, 4, 7, 10, 14, 21, 24, 28, 35, 42, 49, 56, 63, 70, 77, and 84 days post dose.
Blood samples were placed into K2EDTA blood collection tubes. After collection, blood samples were maintained chilled (on wet ice) and centrifuged (11,500 rpm for 2 minutes at 5 degrees C.) within 30 minutes to obtain plasma. Plasma was transferred into a single vial, 1.5 mL screw cap micro-centrifuge tube with inserts and stored at −80 degrees C. until analysis.
The formulation dosed was a crystalline suspension of Compound 4 (48.3 milligrams of Compound 4 dosed per animal), wherein the crystalline test article was characterized with a particle size distribution of Dv10=4.0 μm, Dv50=6.4 μm, and Dv90=9.6 μm (as measured via laser diffraction). The formulation was prepared the day before dosing. Details of the formulation dosed are described in Table D below.
Results of the above intramuscular rat study of Compound 4 are shown in Tables E and F. In particular, Table E reports the average blood plasma levels of naltrexone in rat (n=5) over 84 days following intramuscular administration.

Turning to `O=C(CCc1ccc(CCC(=O)Oc2ccc3c4c2O[C@H]2C(=O)CC[C@@]5(O)[C@@H](C3)N(CC3CC3)CC[C@]425)s1)Oc1ccc2c3c1O[C@H]1C(=O)CC[C@@]4(O)[C@@H](C2)N(CC2CC2)CC[C@]314` [Compound 1, bis((4R,4aS,7aR,12bS)-3-(cyclopropylmethyl)-4a-hydroxy-7-oxo-2,3,4,4a,5,6,7,7a-octahydro-1H-4,12-methanobenzofuro[3,2-e]isoquinolin-9-yl) 3,3′-(thiophene-2,5-diyl)dipropionate], the half-life at 50 nM in series [1] is 7.2 min.
Still for that read-out and setting: for `O=C(Cc1cscc1CC(=O)Oc1ccc2c3c1O[C@H]1C(=O)CC[C@@]4(O)[C@@H](C2)N(CC2CC2)CC[C@]314)Oc1ccc2c3c1O[C@H]1C(=O)CC[C@@]4(O)[C@@H](C2)N(CC2CC2)CC[C@]314` [Compound 2, bis((4R,4aS,7aR,12bS)-3-(cyclopropylmethyl)-4a-hydroxy-7-oxo-2,3,4,4a,5,6,7,7a-octahydro-1H-4,12-methanobenzofuro[3,2-e]isoquinolin-9-yl) 2,2′-(thiophene-3,4-diyl)diacetate] the value was less than 5 min.
Still for that read-out and setting: for `O=C(Cc1sc(CC(=O)Oc2ccc3c4c2O[C@H]2C(=O)CC[C@@]5(O)[C@@H](C3)N(CC3CC3)CC[C@]425)c2ccccc12)Oc1ccc2c3c1O[C@H]1C(=O)CC[C@@]4(O)[C@@H](C2)N(CC2CC2)CC[C@]314` [Compound 3, bis((4R,4aS,7aR,12bS)-3-(cyclopropylmethyl)-4a-hydroxy-7-oxo-2,3,4,4a,5,6,7,7a-octahydro-1H-4,12-methanobenzofuro[3,2-e]isoquinolin-9-yl) 2,2′-(benzo[c]thiophene-1,3-diyl)diacetate] the value was 41.2 min.
With `O=C(Cc1ccc(CC(=O)Oc2ccc3c4c2O[C@H]2C(=O)CC[C@@]5(O)[C@@H](C3)N(CC3CC3)CC[C@]425)s1)Oc1ccc2c3c1O[C@H]1C(=O)CC[C@@]4(O)[C@@H](C2)N(CC2CC2)CC[C@]314` [Compound 4, bis((4R,4aS,7aR,12bS)-3-(cyclopropylmethyl)-4a-hydroxy-7-oxo-2,3,4,4a,5,6,7,7a-octahydro-1H-4,12-methanobenzofuro[3,2-e]isoquinolin-9-yl) 2,2′-(thiophene-2,5-diyl)diacetate], the half-life at 50 nM in series [1] was 4.19 min. Moreover, the concentration at 1 day in series [2] (male, Sprague-Dawley, rat, plasma, intramuscular, 48.3 mg per animal, rat plasma, individual animals Rat 1-5, day 1 after single IM dose of Compound 4, read-out: Compound 4 conc.) is less than 0.5 ng/mL. The concentration at 49 day in series [2] (male, Sprague-Dawley, rat, plasma, intramuscular, 48.3 mg per animal, rat plasma, individual animals Rat 1-5, day 49 after single IM dose of Compound 4, read-out: Compound 4 conc.) was less than 0.5 ng/mL. The concentration at 56 day in series [2] (male, Sprague-Dawley, rat, plasma, intramuscular, 48.3 mg per animal, rat plasma, individual animals Rat 1-5, day 56 after single IM dose of Compound 4, read-out: Compound 4 conc.) is less than 0.5 ng/mL. Further, the concentration at 63 day in series [2] (male, Sprague-Dawley, rat, plasma, intramuscular, 48.3 mg per animal, rat plasma, individual animals Rat 1-5, day 63 after single IM dose of Compound 4, read-out: Compound 4 conc.) is less than 0.5 ng/mL. For the same molecule, the concentration at 70 day in series [2] (male, Sprague-Dawley, rat, plasma, intramuscular, 48.3 mg per animal, rat plasma, individual animals Rat 1-5, day 70 after single IM dose of Compound 4, read-out: Compound 4 conc.) is less than 0.5 ng/mL. Further, in series [2] (male, Sprague-Dawley, rat, plasma, intramuscular, 48.3 mg per animal, rat plasma, individual animals Rat 1-5, day 77 after single IM dose of Compound 4, read-out: Compound 4 conc.), the concentration at 77 day is less than 0.5 ng/mL. In addition, the concentration at 84 day in series [2] (male, Sprague-Dawley, rat, plasma, intramuscular, 48.3 mg per animal, rat plasma, individual animals Rat 1-5, day 84 after single IM dose of Compound 4, read-out: Compound 4 conc.) was less than 0.5 ng/mL. In series [2] (male, Sprague-Dawley, rat, plasma, intramuscular, 48.3 mg/animal, rat plasma, individual animals Rat 1-5, day 2 after single IM dose of Compound 4, read-out: Compound 4 conc.), the concentration at 2 day is less than 0.5 ng/mL. The concentration at 4 day in series [2] (male, Sprague-Dawley, rat, plasma, intramuscular, 48.3 mg/animal, rat plasma, individual animals Rat 1-5, day 4 after single IM dose of Compound 4, read-out: Compound 4 conc.) is less than 0.5 ng/mL. Also, the concentration at 7 day in series [2] (male, Sprague-Dawley, rat, plasma, intramuscular, 48.3 mg/animal, rat plasma, individual animals Rat 1-5, day 7 after single IM dose of Compound 4, read-out: Compound 4 conc.) is less than 0.5 ng/mL. Further, the concentration at 10 day in series [2] (male, Sprague-Dawley, rat, plasma, intramuscular, 48.3 mg/animal, rat plasma, individual animals Rat 1-5, day 10 after single IM dose of Compound 4, read-out: Compound 4 conc.) was less than 0.5 ng/mL. Moreover, in series [2] (male, Sprague-Dawley, rat, plasma, intramuscular, 48.3 mg/animal, rat plasma, individual animals Rat 1-5, day 14 after single IM dose of Compound 4, read-out: Compound 4 conc.), the concentration at 14 day was less than 0.5 ng/mL. Also, the concentration at 21 day in series [2] (male, Sprague-Dawley, rat, plasma, intramuscular, 48.3 mg/animal, rat plasma, individual animals Rat 1-5, day 21 after single IM dose of Compound 4, read-out: Compound 4 conc.) was less than 0.5 ng/mL. Moreover, the concentration at 24 day in series [2] (male, Sprague-Dawley, rat, plasma, intramuscular, 48.3 mg/animal, rat plasma, individual animals Rat 1-5, day 24 after single IM dose of Compound 4, read-out: Compound 4 conc.) is less than 0.5 ng/mL. The concentration at 28 day in series [2] (male, Sprague-Dawley, rat, plasma, intramuscular, 48.3 mg/animal, rat plasma, individual animals Rat 1-5, day 28 after single IM dose of Compound 4, read-out: Compound 4 conc.) was less than 0.5 ng/mL. In addition, the concentration at 35 day in series [2] (male, Sprague-Dawley, rat, plasma, intramuscular, 48.3 mg/animal, rat plasma, individual animals Rat 1-5, day 35 after single IM dose of Compound 4, read-out: Compound 4 conc.) was less than 0.5 ng/mL. The concentration at 42 day in series [2] (male, Sprague-Dawley, rat, plasma, intramuscular, 48.3 mg/animal, rat plasma, individual animals Rat 1-5, day 42 after single IM dose of Compound 4, read-out: Compound 4 conc.) was less than 0.5 ng/mL. Besides, the Naltrexone conc. result in series [2] (rat plasma, average, day 84 after single IM dose of Compound 4 crystalline suspension (48.3 mg/animal)) is “BLQ* (BLQ (Below Limit of Quantitation) means <0.5 ng/mL)”. Also, the “Compound 4 conc.” value in series [2] (rat plasma, individual animals Rat 1-5, day 0.04 (1 hr) after single IM dose of Compound 4) was <0.5 ng/mL (4×) and 2.11 ng/mL; in series [2] (rat plasma, individual animals Rat 1-5, day 0.3 (7 hr) after single IM dose of Compound 4) it was 1.22 ng/mL and <0.5 ng/mL (3×) and 1.05 ng/mL; in series [2] (rat plasma, individual animals Rat 1-5, day 1 after single IM dose of Compound 4), <0.5 ng/mL (3×) and 0.501 ng/mL; in series [2] (rat plasma, individual animals Rat 1-5, day 2 after single IM dose of Compound 4), less than 0.5 ng/mL; in series [2] (rat plasma, individual animals Rat 1-5, day 4 after single IM dose of Compound 4), less than 0.5 ng/mL; in series [2] (rat plasma, individual animals Rat 1-5, day 7 after single IM dose of Compound 4), less than 0.5 ng/mL. Further, the “Compound 4 conc.” value in series [2] (rat plasma, individual animals Rat 1-5, day 10 after single IM dose of Compound 4) was less than 0.5 ng/mL; in series [2] (rat plasma, individual animals Rat 1-5, day 14 after single IM dose of Compound 4) it was less than 0.5 ng/mL; in series [2] (rat plasma, individual animals Rat 1-5, day 21 after single IM dose of Compound 4) it was less than 0.5 ng/mL; in series [2] (rat plasma, individual animals Rat 1-5, day 24 after single IM dose of Compound 4), less than 0.5 ng/mL; in series [2] (rat plasma, individual animals Rat 1-5, day 28 after single IM dose of Compound 4), less than 0.5 ng/mL; in series [2] (rat plasma, individual animals Rat 1-5, day 35 after single IM dose of Compound 4) it was less than 0.5 ng/mL. Further, the “Compound 4 conc.” value in series [2] (rat plasma, individual animals Rat 1-5, day 42 after single IM dose of Compound 4) was less than 0.5 ng/mL; in series [2] (rat plasma, individual animals Rat 1-5, day 49 after single IM dose of Compound 4), less than 0.5 ng/mL; in series [2] (rat plasma, individual animals Rat 1-5, day 56 after single IM dose of Compound 4), less than 0.5 ng/mL; in series [2] (rat plasma, individual animals Rat 1-5, day 63 after single IM dose of Compound 4), less than 0.5 ng/mL; in series [2] (rat plasma, individual animals Rat 1-5, day 70 after single IM dose of Compound 4) it was less than 0.5 ng/mL; in series [2] (rat plasma, individual animals Rat 1-5, day 77 after single IM dose of Compound 4), less than 0.5 ng/mL. The “Compound 4 conc.” value in series [2] (rat plasma, individual animals Rat 1-5, day 84 after single IM dose of Compound 4) was less than 0.5 ng/mL. In series [2] (rat), the “plasma concentrations of parent Compound 4 and the resultant intermediate, in words” value is “generally low to not measurable”.
As for `O=C(O)Cc1ccc(CC(=O)Oc2ccc3c4c2O[C@H]2C(=O)CC[C@@]5(O)[C@@H](C3)N(CC3CC3)CC[C@]425)s1` [Compound 4i, 2-(5-(2-(((4R,4aS,7aR,12bS)-3-(cyclopropylmethyl)-4a-hydroxy-7-oxo-2,3,4,4a,5,6,7,7a-octahydro-1H-4,12-methanobenzofuro[3,2-e]isoquinolin-9-yl)oxy)-2-oxoethyl)thiophen-2-yl)acetic acid], the “plasma concentrations of parent Compound 4 and the resultant intermediate, in words” value in series [2] (rat) is “generally low to not measurable”.
Regarding `O=C(Oc1ccc2c3c1O[C@H]1C(=O)CC[C@@]4(O)[C@@H](C2)N(CC2CC2)CC[C@]314)c1ccc(C(=O)Oc2ccc3c4c2O[C@H]2C(=O)CC[C@@]5(O)[C@@H](C3)N(CC3CC3)CC[C@]425)cc1` [Reference Compound A, NTX-3-terephthaloyl-NTX, reference compound], the half-life at 50 nM in series [1] was 54.7 min.
